pIC50, pKi: −log10 of the molar value.

Test [1] in a line: DRUGMATRIX: Purinergic P2X radioligand binding (ligand: [3H] alpha, beta-Methylene-ATP). It counts as cell membranes, Oryctolagus cuniculus, New Zealand albino, Urinary bladder, Membrane. Conditions: Not Active = under 50% inhibition at 10 µM.
The target in test [2] is Vascular endothelial growth factor receptor 1 (Homo sapiens, UniProt P17948). Type of test: cell-based. Conditions: huvec. Further: in other assays of this panel Not Active means under 50% inhibition at 10 µM.
For test [3], the target named is T1, Alpha-2C adrenergic receptor (Homo sapiens, UniProt P18825).
T1 sequence (P18825 whole entry): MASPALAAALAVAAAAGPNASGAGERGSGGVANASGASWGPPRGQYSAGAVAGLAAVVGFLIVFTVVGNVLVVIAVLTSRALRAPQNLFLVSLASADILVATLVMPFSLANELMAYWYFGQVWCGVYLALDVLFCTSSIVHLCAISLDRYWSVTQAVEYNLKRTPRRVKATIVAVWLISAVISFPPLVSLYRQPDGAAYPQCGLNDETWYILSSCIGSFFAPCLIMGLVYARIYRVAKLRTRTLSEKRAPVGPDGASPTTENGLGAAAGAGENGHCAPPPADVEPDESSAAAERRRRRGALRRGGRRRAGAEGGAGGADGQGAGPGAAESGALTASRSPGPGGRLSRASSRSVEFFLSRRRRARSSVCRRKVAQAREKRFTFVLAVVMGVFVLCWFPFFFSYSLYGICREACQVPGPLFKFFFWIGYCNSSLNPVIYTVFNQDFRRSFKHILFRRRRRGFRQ
Briefly: DRUGMATRIX: Adrenergic Alpha-2C radioligand binding (ligand: [3H] MK-912). Type of test: cell membranes, Sf9, Membrane. To be noted: sf9.

Test [4] addresses T2, Muscarinic acetylcholine receptor M4 (Homo sapiens, UniProt P08173).
T2 sequence (P08173 whole entry): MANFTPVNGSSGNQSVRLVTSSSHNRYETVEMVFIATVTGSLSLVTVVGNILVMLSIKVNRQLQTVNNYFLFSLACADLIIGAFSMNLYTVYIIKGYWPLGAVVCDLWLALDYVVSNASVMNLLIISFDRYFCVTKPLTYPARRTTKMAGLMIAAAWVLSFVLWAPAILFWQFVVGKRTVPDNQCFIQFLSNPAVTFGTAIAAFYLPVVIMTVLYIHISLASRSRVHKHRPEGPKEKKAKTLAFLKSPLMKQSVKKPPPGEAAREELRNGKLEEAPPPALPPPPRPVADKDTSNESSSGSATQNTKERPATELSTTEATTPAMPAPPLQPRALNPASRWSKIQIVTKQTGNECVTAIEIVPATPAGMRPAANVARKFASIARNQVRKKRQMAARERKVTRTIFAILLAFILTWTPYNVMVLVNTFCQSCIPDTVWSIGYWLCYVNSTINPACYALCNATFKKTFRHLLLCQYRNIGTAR
It counts as cell membranes, CHO-K1, Membrane.

The target in another test is T3, Substance-K receptor (Homo sapiens, UniProt P21452). Further: in other assays of this panel Not Active means under 50% inhibition at 10 µM.
T3 sequence (P21452 whole entry): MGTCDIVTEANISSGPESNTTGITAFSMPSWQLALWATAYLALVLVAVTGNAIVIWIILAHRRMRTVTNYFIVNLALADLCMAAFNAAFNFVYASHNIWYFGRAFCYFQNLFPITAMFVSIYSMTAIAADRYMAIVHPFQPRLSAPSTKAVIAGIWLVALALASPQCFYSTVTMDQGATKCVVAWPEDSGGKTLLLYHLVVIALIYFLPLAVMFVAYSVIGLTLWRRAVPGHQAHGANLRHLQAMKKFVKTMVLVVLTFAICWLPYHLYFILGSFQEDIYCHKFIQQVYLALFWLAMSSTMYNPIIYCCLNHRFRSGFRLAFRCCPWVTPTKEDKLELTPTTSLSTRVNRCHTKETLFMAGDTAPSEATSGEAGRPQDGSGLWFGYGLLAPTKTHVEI
Type of test: cell membranes, CHO, Membrane.

The nature of test [5]: DRUGMATRIX: Phorbol Ester radioligand binding (ligand: [3H] PDBu). It counts as cell membranes, Mus musculus, ICR, Brain, Membrane. Conditions: Not Active = under 50% inhibition at 10 µM.
Test [6] is described as follows: DRUGMATRIX: ATPase, Na+/K+ enzyme inhibition (substrate: ATP). It counts as tissue-based, Sus scrofa, Heart. To be noted: Not Active = under 50% inhibition at 10 µM.

Sequence of Vascular endothelial growth factor receptor 1 (P17948 whole entry): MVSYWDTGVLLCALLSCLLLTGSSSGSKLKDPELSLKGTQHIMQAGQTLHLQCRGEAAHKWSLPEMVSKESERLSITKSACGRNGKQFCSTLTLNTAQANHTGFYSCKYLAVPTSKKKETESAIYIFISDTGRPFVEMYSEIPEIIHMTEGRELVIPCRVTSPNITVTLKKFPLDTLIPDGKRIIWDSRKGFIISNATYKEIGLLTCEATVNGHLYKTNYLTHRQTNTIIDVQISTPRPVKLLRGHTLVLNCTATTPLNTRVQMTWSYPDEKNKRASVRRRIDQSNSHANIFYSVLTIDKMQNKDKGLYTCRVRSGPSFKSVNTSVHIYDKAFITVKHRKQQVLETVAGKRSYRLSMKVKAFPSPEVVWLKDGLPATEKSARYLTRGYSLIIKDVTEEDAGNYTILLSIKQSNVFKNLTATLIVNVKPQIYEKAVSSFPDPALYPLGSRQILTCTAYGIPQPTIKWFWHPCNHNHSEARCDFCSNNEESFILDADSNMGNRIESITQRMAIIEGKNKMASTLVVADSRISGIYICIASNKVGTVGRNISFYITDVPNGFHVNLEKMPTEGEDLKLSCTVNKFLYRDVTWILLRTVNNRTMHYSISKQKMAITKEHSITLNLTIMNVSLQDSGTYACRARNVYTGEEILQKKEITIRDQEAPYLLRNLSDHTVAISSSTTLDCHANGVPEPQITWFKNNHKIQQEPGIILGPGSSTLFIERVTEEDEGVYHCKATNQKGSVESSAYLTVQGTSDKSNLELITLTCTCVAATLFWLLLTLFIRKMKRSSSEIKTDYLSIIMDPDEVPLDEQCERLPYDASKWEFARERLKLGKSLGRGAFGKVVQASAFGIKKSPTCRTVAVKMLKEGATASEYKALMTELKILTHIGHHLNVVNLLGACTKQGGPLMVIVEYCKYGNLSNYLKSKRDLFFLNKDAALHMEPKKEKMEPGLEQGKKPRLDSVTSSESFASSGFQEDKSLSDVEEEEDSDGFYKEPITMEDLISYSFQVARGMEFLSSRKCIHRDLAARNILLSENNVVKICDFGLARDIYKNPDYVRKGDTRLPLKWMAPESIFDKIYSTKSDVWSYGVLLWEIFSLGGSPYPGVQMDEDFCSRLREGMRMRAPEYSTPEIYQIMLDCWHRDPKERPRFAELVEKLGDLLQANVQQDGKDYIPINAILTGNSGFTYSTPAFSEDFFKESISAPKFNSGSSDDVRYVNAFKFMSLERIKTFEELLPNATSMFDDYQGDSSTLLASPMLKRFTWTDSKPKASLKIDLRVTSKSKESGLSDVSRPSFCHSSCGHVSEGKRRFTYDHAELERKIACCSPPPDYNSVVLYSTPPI

`C=CCO` [ALLYL ALCOHOL]: the IC50 result (in test [1]; in test [2]; in test [3]; in test [4] (cho-k1); at Substance-K receptor (cho); in test [5]) was “Not Active” throughout. The IC50 result in test [6] is on record as “Not Active”. The Ki entry in test [1], in test [5] and in test [6] was “Not Active” each time.

On to `CC(C)Cc1ccc([C@H](C)C(=O)O)cc1` [DEXIBUPROFEN], for which the IC50 entry (in test [1]; in test [2]; in test [3]; in test [4] (cho-k1); on Substance-K receptor (cho); in test [5]) was “Not Active” in each case. Moreover, in test [6], the IC50 entry is reported as “Not Active”. Further, the Ki entry in test [1], in test [5] and in test [6] was “Not Active” each time.

In the case of `O=c1[nH]cnc2c1ncn2[C@H]1CC[C@@H](CO)O1` [DIDANOSINE], the IC50 result (in test [1]; in test [2]; in test [3]; in test [4] (cho-k1); against Substance-K receptor (cho); in test [5]) was “Not Active” each time. In addition, the IC50 entry in test [6] is “Not Active”. The Ki entry in test [1], in test [5] and in test [6] was “Not Active” each time.

`CC1(COc2ccc(CC3SC(=O)NC3=O)cc2)CCCCC1` (stereo unspecified) [CIGLITAZONE]: the IC50 entry in test [1], in test [2], in test [3], in test [5] and in test [6] was “Not Active” each time. Moreover, the Ki result in test [1], in test [5] and in test [6] was “Not Active” each time. Further, the figures for the pIC50 (in test [4] (read-out: IC50); on Substance-K receptor (read-out: IC50)) were 4.79 and 4.90, respectively. The results for the negative-log Ki (pKi) (in test [4] (read-out: Ki); at Substance-K receptor (read-out: Ki)) were 5.65 and 5.38, respectively.

As to `CC(=O)Nc1ccc2c(c1)Cc1ccccc1-2` [2-ACETYLAMINOFLUORENE], the IC50 entry (in test [1]; in test [2]; in test [3]; in test [4] (cho-k1); at Substance-K receptor (cho); in test [5]) was “Not Active” each time. Besides, the IC50 result in test [6] is on record as “Not Active”. The Ki entry in test [1], in test [5] and in test [6] was “Not Active” each time.

Turning to `C[C@H](C(=O)O)c1ccc2oc(-c3ccc(F)cc3)nc2c1` [FLUNOXAPROFEN], the IC50 result (in test [1]; in test [2]; in test [3]; in test [4] (cho-k1); against Substance-K receptor (cho); in test [5]) was “Not Active” throughout. Besides, the IC50 result in test [6] is given as “Not Active”. The Ki result in test [1], in test [5] and in test [6] was “Not Active” throughout.

Consider `CC(C)Cn1cnc2c(N)nc3ccccc3c21` [IMIQUIMOD], for which the IC50 result (in test [1]; in test [2]; in test [3]; in test [4] (cho-k1); against Substance-K receptor (cho); in test [5]) was “Not Active” each time. Moreover, in test [6], the IC50 entry is “Not Active”. Moreover, the Ki entry in test [1], in test [5] and in test [6] was “Not Active” throughout.

With `OC[C@H]1OC2C3[C@@H](CO)OC(O[C@H]4[C@H](O)[C@@H](O)[C@@H](O[C@H]5[C@H](O)[C@@H](O)[C@@H](O[C@H]6[C@H](O)[C@@H](O)[C@@H](O[C@H]7[C@H](O)[C@@H](O)[C@@H](O[C@H]8[C@H](O)[C@@H](O)[C@@H](O[C@H]9[C@H](O)[C@@H](O)C(OC1[C@H](O)[C@H]2O)O[C@@H]9CO)O[C@@H]8CO)O[C@@H]7CO)O[C@@H]6CO)O[C@@H]5CO)O[C@@H]4CO)[C@H](O)[C@H]3O`, the IC50 result (in test [1]; in test [2]; in test [3]; in test [4] (cho-k1); on Substance-K receptor (cho); in test [5]) was “Not Active” throughout. The IC50 entry in test [6] is listed as “Not Active”. Further, the Ki entry in test [1], in test [5] and in test [6] was “Not Active” in each case.

Turning to `CCN1CCN(c2cc3c(cc2F)c(=O)c(C(=O)O)cn3C2CC2)CC1` [ENROFLOXACIN], the IC50 entry (in test [1]; in test [2]; in test [3]; in test [4] (cho-k1); against Substance-K receptor (cho); in test [5]) was “Not Active” in each case. Also, the IC50 result in test [6] is reported as “Not Active”. The Ki entry in test [1], in test [5] and in test [6] was “Not Active” in each case.

For POVIDONE, the IC50 result (in test [1]; in test [2]; in test [3]; in test [4] (cho-k1); against Substance-K receptor (cho); in test [5]) was “Not Active” throughout. Moreover, the IC50 result in test [6] is listed as “Not Active”. The Ki result (in test [1]; in test [2]; in test [3]; in test [4] (cho-k1); on Substance-K receptor (cho); in test [5]) was “Not Active” each time. In test [6], the Ki entry is listed as “Not Active”.

For `C=C(Cl)Cl` [1,1-DICHLOROETHENE], the IC50 entry (in test [1]; in test [2]; in test [3]; in test [4] (cho-k1); against Substance-K receptor (cho); in test [5]) was “Not Active” each time. The IC50 entry in test [6] is on record as “Not Active”. Also, the Ki result in test [1], in test [5] and in test [6] was “Not Active” in each case.

As for `C#C[C@]1(O)CC[C@H]2[C@@H]3CCC4=CC(=O)CC[C@@H]4[C@H]3CC[C@@]21C` [NORETHINDRONE], the IC50 result (in test [1]; in test [2]; in test [3]; in test [4] (cho-k1); at Substance-K receptor (cho); in test [5]) was “Not Active” each time. Besides, in test [6], the IC50 result is “Not Active”. For the same molecule, the Ki entry in test [1], in test [5] and in test [6] was “Not Active” in each case.

Regarding `C=CCN1CC[C@]23c4c5ccc(O)c4O[C@H]2/C(=N/N=C2\CC[C@@]4(O)[C@H]6Cc7ccc(O)c8c7[C@@]4(CCN6CC=C)[C@H]2O8)CC[C@@]3(O)[C@H]1C5` [NALOXONAZINE], the IC50 result (in test [1]; in test [2]; in test [3]; in test [4] (cho-k1); at Substance-K receptor (cho); in test [5]) was “Not Active” in each case. Also, the IC50 entry in test [6] is “Not Active”. Further, the Ki entry in test [1], in test [5] and in test [6] was “Not Active” in each case.

As for `Oc1ncnc2[nH]ncc12` [ALLOPURINOL], the IC50 entry (in test [1]; in test [2]; in test [3]; in test [4] (cho-k1); against Substance-K receptor (cho); in test [5]) was “Not Active” throughout. In test [6], the IC50 result was “Not Active”. For the same molecule, the Ki entry in test [1], in test [5] and in test [6] was “Not Active” in each case.

With `CCC1(c2ccccc2)C(=O)NC(=O)NC1=O` [PHENOBARBITAL], the IC50 result (in test [1]; in test [2]; in test [3]; in test [4] (cho-k1); on Substance-K receptor (cho); in test [5]) was “Not Active” throughout. Moreover, the IC50 result in test [6] is “Not Active”. For the same molecule, the Ki result in test [1], in test [5] and in test [6] was “Not Active” in each case.

The values are drawn from ChEMBL document CHEMBL1909046, “DrugMatrix in vitro pharmacology data”.
